Source: patent US20250197905A1, “LEGIONAMINIC ACID GLYCOSYLTRANSFERASES FOR CHEMOENZYMATIC SYNTHESIS OF GLYCANS AND GLYCOCONJUGATES” (The Regents of the University of California, priority 2022, published 2025)
“And” between values parts separate entries of the source, which are not always exact repeats. Equal values may be shown once.

Legend:
His6-AbGtr18 [1] = experiment: Effects of metal ions, EDTA, and DTT on the activity of His6-AbGtr18; assay type: biochemical, A. baumannii K8; conditions: donor CMP-Leg5,7Ac2; for Effect on the activity of AbGtr18: 10 mM additive, 40° C., 30 minutes, pH 6.0
Method: Effects of metal ions, EDTA, and a reducing reagent DTT on the activity of His6-AbGtr18. Enzymatic assays were carried out in duplicate at 40° C. for 30 minutes in a total volume of 10 μL in citric acid-sodium citrate buffer ([…], pH 6.0) containing 1 mM CMP-Leg5,7Ac2, 1 mM GalNAcα2AA, His6-AbGtr18 (0.64 μM), and 10 mM of CaCl2), CuSO4, MgCl2, MnCl2, NiSO4, ZnCl2, ethylenediaminetetraacetic acid (EDTA), or dithiothreitol (DTT). Reactions without metal ions, EDTA, or DTT were used as controls. The reactions were quenched by adding 40 μL methanol. Samples were centrifuged, and then analyzed by UHPLC as described above for pH profile studies.

[2] = test system: LpCLS or NmCSS, with or without PmAldolase; assay type: biochemical
MBP-AbGtr18-His6 = assay type: biochemical, A. baumannii K8
His6-AbGtr18 [3] = assay type: biochemical, A. baumannii K8

Compound | CMP-Sia Yield (%) [2] | Sialoside yield (%) 20 h (MBP-AbGtr18-His6) | Activity of His6-AbGtr18 towards acceptor (in words) (His6-AbGtr18 [3]) | Yield (%) 20 h (His6-AbGtr18 [3]) | also measured
O[C@H](CS)[C@H](O)CS (racemic) [DTT, dithiothreitol] |  |  |  |  | Effect on the activity of AbGtr18 (His6-AbGtr18 [1]): no significant effect
CC(=O)N[C@@H]([C@H](O)[C@H](NC(C)=O)[C@@H](O)CC(=O)C(=O)O)[C@@H](C)O [CMP-Leg5,7Ac2, 5,7-diacetamido-3,5,7,9-tetradeoxy-D-glycero-D-galacto-non-2-ulosonic acid] | >99% | 72.6 ± 0.1% and 99.0 ± 0.6% |  |  | Sialoside yield (%) 0.5 h (MBP-AbGtr18-His6): 53.5 ± 0.5% and 56.6 ± 1.6%; Suitability as donor substrate for MBP-AbGtr18-His6 (in words) (MBP-AbGtr18-His6): used efficiently
[N-]=[N+]=NCC(O)C(N=[N+]=[N-])C1OC(OP(=O)(O)OCC2OC(n3ccc(N)nc3=O)C(O)C2O)(C(=O)O)CC(O)C1N=[N+]=[N-] (centres unmarked) [CMP-Neu5,7,9triN3] |  |  |  |  | Suitability as donor substrate for MBP-AbGtr18-His6 (in words) (MBP-AbGtr18-His6): limited activity
[N-]=[N+]=N[C@@H]([C@@H]1OC(OP(=O)(O)OC[C@H]2O[C@@H](n3ccc(N)nc3=O)[C@H](O)[C@@H]2O)(C(=O)O)C[C@H](O)[C@H]1N=[N+]=[N-])[C@H](O)CO (some centres unmarked) [CMP-Neu5,7diN3] |  |  |  |  | Suitability as donor substrate for MBP-AbGtr18-His6 (in words) (MBP-AbGtr18-His6): limited activity
CC(=O)NC1C(O)CC(OP(=O)(O)OCC2OC(n3ccc(N)nc3=O)C(O)C2O)(C(=O)O)OC1C(N=[N+]=[N-])C(O)CO (centres unmarked) [CMP-Neu5Ac7N3] |  |  |  |  | Suitability as donor substrate for MBP-AbGtr18-His6 (in words) (MBP-AbGtr18-His6): suitable but less efficient donor substrates
CC(=O)N[C@H]1[C@H]([C@H](O)[C@H](O)CN=[N+]=[N-])OC(OP(=O)(O)OC[C@H]2O[C@@H](n3ccc(N)nc3=O)[C@H](O)[C@@H]2O)(C(=O)O)C[C@@H]1O (some centres unmarked) [CMP-Neu5Ac9N3] |  |  |  |  | Suitability as donor substrate for MBP-AbGtr18-His6 (in words) (MBP-AbGtr18-His6): efficient
[N-]=[N+]=NCC(=O)N[C@H]1[C@H]([C@H](O)[C@H](O)CO)OC(OP(=O)(O)OC[C@H]2O[C@@H](n3ccc(N)nc3=O)[C@H](O)[C@@H]2O)(C(=O)O)C[C@@H]1O (some centres unmarked) [CMP-Neu5Az] |  |  |  |  | Suitability as donor substrate for MBP-AbGtr18-His6 (in words) (MBP-AbGtr18-His6): efficient
Nc1ccn([C@@H]2O[C@H](COP(=O)(O)O[C@@]3(C(=O)O)C[C@H](O)[C@@H](NC(=O)CO)[C@H]([C@H](O)[C@H](O)CO)O3)[C@@H](O)[C@H]2O)c(=O)n1 [CMP-Neu5Gc] |  |  |  |  | Suitability as donor substrate for MBP-AbGtr18-His6 (in words) (MBP-AbGtr18-His6): suitable but less efficient donor substrates
[N-]=[N+]=NC1C(O)CC(OP(=O)(O)OCC2OC(n3ccc(N)nc3=O)C(O)C2O)(C(=O)O)OC1C(O)C(O)CO (centres unmarked) [CMP-Neu5N3] |  |  |  |  | Suitability as donor substrate for MBP-AbGtr18-His6 (in words) (MBP-AbGtr18-His6): poor donor substrates
[Ca+2].[Cl-].[Cl-] [Ca^2+, CaCl2] |  |  |  |  | Effect on the activity of AbGtr18 (His6-AbGtr18 [1]): no significant effect
O=S(=O)([O-])[O-].[Cu+2] [Cu^2+, CuSO4] |  |  |  |  | Effect on the activity of AbGtr18 (His6-AbGtr18 [1]): decreased the reaction yields
O=C(O)CN(CCN(CC(=O)O)CC(=O)O)CC(=O)O [EDTA, ethylenediaminetetraacetic acid] |  |  |  |  | Effect on the activity of AbGtr18 (His6-AbGtr18 [1]): no effect
CC(=O)N[C@H]1[C@@H](OCCCNC(=O)OCc2ccccc2)O[C@H](CO)[C@H](O)[C@@H]1O [GalNAcαProNHCbz] |  |  | lower efficiency | 82.5 ± 0.6% | Yield (%) 15 min (His6-AbGtr18 [3]): 14.6 ± 1.1%
CC(=O)N[C@H]1[C@H](OCCCNC(=O)OCc2ccccc2)O[C@H](CO)[C@H](O)[C@@H]1O [GalNAcβProNHCbz] |  |  | much lower efficiencies | 33.5 ± 0.8% | Yield (%) 15 min (His6-AbGtr18 [3]): 1.7 ± 0.2%
O=[N+]([O-])c1ccc(O[C@H]2O[C@H](CO)[C@H](O)[C@H](O)[C@H]2O)cc1 [GalαpNP, 4-Nitrophenyl-α-D-galactopyranoside] |  |  | much lower efficiencies | 16.7 ± 0.2% | 
CC(=O)N[C@H]1[C@@H](OCCCNC(=O)OCc2ccccc2)O[C@H](CO)[C@H](O)[C@@H]1O[C@@H]1O[C@H](CO)[C@H](O)[C@H](O)[C@H]1O [Galβ1-3GalNAcαProNHCbz] |  |  | trace activity | Trace^[e] | 
CC(=O)N[C@H]1[C@H](OCCCNC(=O)OCc2ccccc2)O[C@H](CO)[C@H](O)[C@@H]1O[C@@H]1O[C@H](CO)[C@H](O)[C@H](O)[C@H]1O [Galβ1-3GalNAcβProNHCbz] |  |  | trace activity | Trace | 
CC(=O)N[C@H]1[C@H](OCCCNC(=O)OCc2ccccc2)O[C@H](CO)[C@@H](O)[C@@H]1O[C@@H]1O[C@H](CO)[C@H](O)[C@H](O)[C@H]1O [Galβ1-3GlcNAcβProNHCbz] |  |  | much lower efficiencies | 23.9 ± 0.3% | Yield (%) 15 min (His6-AbGtr18 [3]): 0.9 ± 0.1%
O=[N+]([O-])c1ccc(O[C@@H]2O[C@H](CO)[C@H](O)[C@H](O)[C@H]2O)cc1 [GalβpNP, 4-nitrophenyl β-D-galactopyranoside] |  |  | trace activity | 1.6 ± 0.1% | 
CC(=O)N[C@H]1[C@@H](OCCCNC(=O)OCc2ccccc2)O[C@H](CO)[C@@H](O)[C@@H]1O [GlcNAcαProNHCbz] |  |  | much lower efficiencies | 20.4 ± 0.1% | Yield (%) 15 min (His6-AbGtr18 [3]): 0.5 ± 0.1%

Compound | CMP-Sia Yield (%) [2] | Sialoside yield (%) 20 h (MBP-AbGtr18-His6) | Activity of His6-AbGtr18 towards acceptor (in words) (His6-AbGtr18 [3]) | Yield (%) 20 h (His6-AbGtr18 [3]) | also measured
CC(=O)N[C@H]1[C@H](OCCCNC(=O)OCc2ccccc2)O[C@H](CO)[C@@H](O)[C@@H]1O [GlcNAcβProNHCbz] |  |  | trace activity | 1.0 ± 0.1% | 
O=C(O)C1(O)C[C@H](O)[C@@H](O)[C@H]([C@H](O)[C@H](O)CO)O1 (some centres unmarked) [Kdn] | >99% | 9.6 ± 0.1% |  |  | Suitability as donor substrate for MBP-AbGtr18-His6 (in words) (MBP-AbGtr18-His6): poor donor substrates
CC(=O)N[C@H]1[C@H](OCCCNC(=O)OCc2ccccc2)O[C@H](CO)[C@@H](O[C@@H]2O[C@H](CO)[C@H](O)[C@H](O)[C@H]2O)[C@@H]1O [LacNAcβProNHCbz] |  |  | limited activity | 7.7 ± 0.1% | 
O=C(NCCCO[C@@H]1O[C@H](CO)[C@@H](O[C@@H]2O[C@H](CO)[C@H](O)[C@H](O)[C@H]2O)[C@H](O)[C@H]1O)OCc1ccccc1 [LacβProNHCbz] |  |  | limited activity | 13.8 ± 0.2% | 
C[C@@H](O)[C@@H](N=[N+]=[N-])[C@@H]1OC(O)(C(=O)O)C[C@H](O)[C@H]1N=[N+]=[N-] (some centres unmarked) [Leg5,7diN3] | >99% | 68.4 ± 1.5% |  |  | Sialoside yield (%) 0.5 h (MBP-AbGtr18-His6): 44.3 ± 1.6%; Suitability as donor substrate for MBP-AbGtr18-His6 (in words) (MBP-AbGtr18-His6): suitable but less efficient donor substrates
CC(=O)NC[C@H]1OC(O)[C@@H](NC(C)=O)[C@@H](O)[C@@H]1NC(C)=O (some centres unmarked) [Man2,4,6triNAc] | 24.1 ± 1.1% | 2.8 ± 0.1% |  |  | 
CC(=O)N[C@H]1[C@H](O)[C@H](NC(C)=O)C(O)O[C@@H]1CO (some centres unmarked) [Man2,4diNAc] | 51.5 ± 0.9% | 30.3 ± 0.3% |  |  | Sialoside yield (%) 0.5 h (MBP-AbGtr18-His6): 5.5 ± 0.1%
[N-]=[N+]=NC1C(O)OC(CO)[C@@H](O)[C@@H]1O (some centres unmarked) [Man2N3] | 57.6 ± 0.1% | Trace |  |  | 
CC(=O)N[C@@H]1C(O)O[C@H](CO)[C@@H](N=[N+]=[N-])[C@@H]1O (some centres unmarked) [ManNAc4N3] | 84.4 ± 1.6% | 72.5 ± 0.1% |  |  | Sialoside yield (%) 0.5 h (MBP-AbGtr18-His6): 50.6 ± 0.5%
CC(=O)N[C@@H]1C(O)O[C@H](CN=[N+]=[N-])[C@@H](O)[C@@H]1O (some centres unmarked) [ManNAc6N3] | >99% | 96.0 ± 2.1% |  |  | Sialoside yield (%) 0.5 h (MBP-AbGtr18-His6): 55.5 ± 0.6%
CC(=O)N[C@H]1[C@@H](O)[C@H](O)[C@@H](CO)O[C@@H]1O [ManNAc] | >99% | 71.1 ± 0.4% |  |  | Sialoside yield (%) 0.5 h (MBP-AbGtr18-His6): 37.6 ± 0.4%
[N-]=[N+]=NCC(=O)NC1C(O)OC(CO)C(O)C1O (centres unmarked) [ManNAz] | >99% | 98.4 ± 1.8% |  |  | Sialoside yield (%) 0.5 h (MBP-AbGtr18-His6): 57.3 ± 0.4%
O=C(CO)N[C@@H]1C(O)O[C@H](CO)[C@@H](O)[C@@H]1O (some centres unmarked) [ManNGc] | >99% | 71.6 ± 2.5% |  |  | Sialoside yield (%) 0.5 h (MBP-AbGtr18-His6): 13 ± 0.4%
O=C[C@@H](O)[C@@H](O)[C@H](O)[C@H](O)CO [Mannose] | 77.7 ± 1.6% | 5.0 ± 0.3% |  |  | 
[Cl-].[Cl-].[Mg+2] [Mg^2+, MgCl2] |  |  |  |  | Effect on the activity of AbGtr18 (His6-AbGtr18 [1]): no significant effect; Effect of increasing Mg^2+ concentration on the activity of His6-AbGtr18 (His6-AbGtr18 [1]; up to 50 mM): decrease the activity
[Cl][Mn][Cl] [Mn^2+, MnCl2] |  |  |  |  | Effect on the activity of AbGtr18 (His6-AbGtr18 [1]): almost abolished its activity completely
CC(=O)N[C@H]1[C@H]([C@@H](O)[C@@H](O)CO)O[C@@](O)(C(=O)O)C[C@@H]1O [Neu5Ac] | >99% | 93.3 ± 0.6% |  |  | Sialoside yield (%) 0.5 h (MBP-AbGtr18-His6): 47.4 ± 1.7%; Suitability as donor substrate for MBP-AbGtr18-His6 (in words) (MBP-AbGtr18-His6): efficient
[Cl-].[Cl-].[Zn+2] [Zn^2+, ZnCl2] |  |  |  |  | Effect on the activity of AbGtr18 (His6-AbGtr18 [1]): almost abolished its activity completely
GalNAcα2AA |  |  | most reactive | 78.1 ± 0.6% | Yield (%) 15 min (His6-AbGtr18 [3]): 35.7 ± 2.2%
